The source of these data is US11319293B2, “Polymorps of cariprazine hydrochloride and preparation method thereof and use of same” (SHANGHAI BEGREAT PHARMATECH, priority 2018, dated 2022).

The subject of one series is bipolar disorder. As to conditions: cited from earlier work.
The next series concerns schizophrenia. As to conditions: cited from earlier work.
Series [1] can be described thus: Powder flowability test (angle of repose). It is filed as physicochemical. The following applies: for angle of repose: average of three determinations, α=arctg(H/R), hydrochloride; for flowability compared with forms I and II (in words): conclusion from angle of repose. An excerpt: Angle of repose is adopted widely to evaluate the powder flowability. When the angle of repose of the powder is less than or equal to 30 degrees, it means the flowability of this powder is good. While in case, 40 degrees or less of the powder angle of repose, this powder can satisfy the demand for fluidity in the production process. When the angle of repose of the powder is more than 40 degrees, it means the very poor flowability of the drug powder which may cause the troubles above mentioned during the drug manufacturing process.
Powder flowability test: A petri dish with a diameter of 7 cm in the bottom plate is used. Two glass funnels are staggered on top of each other and fixed on an iron stand. The distance between the lower funnel outlet and the bottom plate is between 3.5-6.0 cm. Take some cariprazine hydrochlorides in different crystal forms, and slowly add them from the upper funnel, so that the sample gradually accumulates on the chassis through the buffer of the two funnels to form a cone until the highest cone is obtained. Measure the height H of the cone. Determine three times for each sample, take the average, and calculate the angle of repose as follows: α=arctg(H/R) Among them, α is the angle of repose and R is the radius of the chassis.
When the angle of repose of the powder is less than or equal to 30 degrees, it means flowability of powder is good. The flowability requirement in the manufactured process can be satisfied when it is less than or equal to 40 degrees. If the angle of repose of powder is more than 40 degrees, it means flowability is poor.

Series [2] is described as follows: Dissolution and re-precipitation time in pH 6.5 buffer (simulated fasting small intestine). Format: physicochemical. The following applies: for Dissolving time / Precipitate time: 5 mg crystal form in 80 mL pH 6.5 buffer solution; for Dissolving time: shaken slightly; for Precipitate time: time of re-precipitation, hydrochloride. How it is done:
In Example 1, precipitation time for Form A and Forms I and II were compared under pH of simulated intestinal fluid. Take 5 mg of crystal forms A, I and II, and put them in 100-ml glass sample bottles, add 80 mL of pH 6.5 buffer solution (pH value of simulating fasting small intestine), and shake them slightly to observe precipitate. Dissolution status and time of re-precipitation were recorded.

Counter-ions that a name gives are not always drawn.

For the compound `CN(C)C(=O)N[C@H]1CC[C@H](CCN2CCN(c3cccc(Cl)c3Cl)CC2)CC1` [Compound 1, hydrochloride], the “symptoms of bipolar disorder compared with placebo group” value in the series on bipolar disorder (6-week clinical trial, 1037 subjects) is listed as “significantly reduce the symptoms of bipolar disorder”. Also, the “most common adverse effects in the treatment of bipolar disorder” value in the series on bipolar disorder (clinical trials) is “extrapyramidal symptoms, manifested by inability to sit still, indigestion, vomiting, lethargy, and restlessness”. Further, the “most common adverse effects in the treatment of schizophrenia” value in the series on schizophrenia (clinical trials) is “extrapyramidal symptoms, including tremor, speech insufficiency, and dystonia”. Besides, in the series with schizophrenia (six-week clinical trial, 1,754 participants, according to the FDA), the “symptoms of schizophrenia compared to placebo group” value is recorded as “significantly reduces the symptoms of schizophrenia”.

For the compound `CN(C)C(=O)N[C@H]1CC[C@H](CCN2CCN(c3cccc(Cl)c3Cl)CC2)CC1` [Form B, trans-N-{4-[2-[4-(2,3-dichlorophenyl)-piperazine-1-yl]-ethyl]-cyclohexyl}-N′,N′-dimethylurea hydrochloride], in series [1], the angle of repose came out at 28°; the “flowability compared with forms I and II (in words)” value is reported as “significantly improve the flowability”.

In the case of `CN(C)C(=O)N[C@H]1CC[C@H](CCN2CCN(c3cccc(Cl)c3Cl)CC2)CC1` [Form A, trans-N-{4-[2-[4-(2,3-dichlorophenyl)-piperazine-1-yl]-ethyl]-cyclohexyl}-N′,N′-dimethylurea hydrochloride], in series [1], the angle of repose came to 35°; the “flowability compared with forms I and II (in words)” value was “significantly improve the flowability”. In series [2], the Dissolving time entry is reported as “immediately” and the Precipitate time is recorded as 10 min. In addition, the “maintenance of dissolved state under near-neutral conditions compared to Forms I and II (in words)” value in series [2] (pH 6.5 buffer) was “significantly prolonged maintenance”.

`CN(C)C(=O)N[C@H]1CC[C@H](CCN2CCN(c3cccc(Cl)c3Cl)CC2)CC1` [Form I, cariprazine hydrochloride]: the angle of repose in series [1] was 40°. In series [2], the Dissolving time result is recorded as “immediately” and the Precipitate time was 1 min.

For `CN(C)C(=O)N[C@H]1CC[C@H](CCN2CCN(c3cccc(Cl)c3Cl)CC2)CC1` [Form C, trans-N-{4-[2-[4-(2,3-dichlorophenyl)-piperazine-1-yl]-ethyl]-cyclohexyl}-N′,N′-dimethylurea hydrochloride], in series [1], the angle of repose came out at 31°; the “flowability compared with forms I and II (in words)” value is on record as “significantly improve the flowability”.

Turning to `CN(C)C(=O)N[C@H]1CC[C@H](CCN2CCN(c3cccc(Cl)c3Cl)CC2)CC1` [Form II, cariprazine hydrochloride], the angle of repose in series [1] is given as 40°. For the same compound, in series [2], the Dissolving time entry was “immediately” and the Precipitate time is listed as 1 min.
